Measurements: patent EP0558245A1, “Heterobicyclic compounds as antagogists of alpha-1 adrenergic and SHT1A receptors” (priority 1992, dated 1993)
Structures can show the parent of a compound that is named as a salt. Where two headings read alike, the source gives them in different places.

Legend:
[1] = target: α₁ receptors; assay: [3H]prazosin binding (α1 receptors), rat cerebral cortex membranes; details: for IC50: rat cerebral cortex crude membranes, [3H]prazosin 0.35 nM, 25°C 30 min, read-out: Receptor Binding IC50 (nM) α1
[2] = Acute toxicity in mice after intraperitoneal and oral administration; details: mouse, in vivo, female albino Swiss mice, mortality recorded 7 days after administration
How it was run: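 Female albino Swiss mice (20-30 g) dosed i.p. or orally at four log-scaled doses in 0.5% Methocel (10 ml/kg), 4 mice/dose. Mortality recorded at 7 days; LD₅₀ with fiducial limits by Weil's method.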

[3] = tested on: rat bladder strips; assay: K+-induced contractions of rat bladder strips; format: cell-based
Method: The whole bladder of the rat was removed and immediately placed in Krebs solution warmed at 37°C. […] Each strip was placed in a 10 ml organ bath and connected, under a constant load of 1 g, to an isometric strain gauge (DY-1 Basile, Comerio, Varese, Italy). […] After a 60 minutes equilibration period the strips were exposed to 80 mM KCl (final concentration). […] When the tonic contraction was stable, the strips were washed and 30 minutes later a new contraction was induced. After having recorded two or more reproducible responses, one concentration of the tested drugs was added to the bath and 30 minutes later a new contraction was induced. The experimental groups consisted of at least two preparations taken from different animals for each concentration of drug tested. The IC₅₀ values of inhibition of agonist-induced contractions were evaluated by linear regression analysis.

[4] = target: T1, 5HT1A receptors (Rattus norvegicus, UniProt P19327); assay: [3H]8-OH-DPAT binding (5HT1A receptors), rat hippocampus membranes
T1 construct: Rat hippocampi were homogenized; from tissue; host or cells: rat hippocampus membranes
T1 sequence (P19327 1-422): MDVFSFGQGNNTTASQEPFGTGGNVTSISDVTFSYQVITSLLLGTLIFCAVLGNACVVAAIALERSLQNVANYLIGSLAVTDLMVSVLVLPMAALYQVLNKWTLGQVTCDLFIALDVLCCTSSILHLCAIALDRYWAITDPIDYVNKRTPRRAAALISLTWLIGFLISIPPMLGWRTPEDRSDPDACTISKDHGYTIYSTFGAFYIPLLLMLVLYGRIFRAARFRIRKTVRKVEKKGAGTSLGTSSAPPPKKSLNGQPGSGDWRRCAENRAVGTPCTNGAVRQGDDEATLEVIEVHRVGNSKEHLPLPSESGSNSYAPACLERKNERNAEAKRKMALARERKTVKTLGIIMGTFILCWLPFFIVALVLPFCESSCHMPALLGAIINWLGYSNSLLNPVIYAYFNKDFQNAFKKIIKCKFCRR

[5] = ip, intraperitoneal, read-out: Acute Toxicity in Mice LD50 (mg/kg) i.p.
[6] = oral, read-out: Acute Toxicity in Mice LD50 (mg/kg) p.o.
[7] = 80 mM KCl, phasic contraction, drug added 30 minutes before, read-out: K+ Stimulation of Rat Bladder IC50 (μM) Contractions Phasic
[8] = 80 mM KCl, tonic contraction, drug added 30 minutes before, read-out: K+ Stimulation of Rat Bladder IC50 (μM) Contractions Tonic
[9] = rat hippocampus crude membranes, [3H]8-OH-DPAT 1.0 nM, 25°C 30 min, read-out: Receptor Binding IC50 (nM) 5-HT1a

`COc1ccccc1N1CCN(CCC(O)c2cccc3c(=O)c(C)c(-c4ccccc4)oc23)CC1.Cl` (stereo not shown) [Example 20, 8-{1-Hydroxy-3-[4-(2-methoxyphenyl)-1-piperazinyl]-propyl}-3-methyl-4-oxo-2-phenyl-4H-1-benzopyran hydrochloride] gave an IC50 [1] of 169 nM, an LD50 at 168 h [2, 5] of 297 mg/kg and an LD50 at 168 h [2, 6] of 594 mg/kg. It also gave an IC50 [3, 7] of 2.7 µM, an IC50 [3, 8] of 2.5 µM and an IC50 [4, 9] of 85 nM.

Work on `COc1cccc(OC)c1OCCNCCOc1cccc2c(=O)c(C)c(-c3ccccc3)oc12.Cl` [Example 44, 8-{2-[2-(2,6-dimethoxyphenoxy)-ethylamino]-ethoxy}-3-methyl-4-oxo-2-phenyl-4H-1-benzopyran hydrochloride] yielded an IC50 [1] of 685 nM, an LD50 at 168 h [2, 5] of 84 mg/kg and an LD50 at 168 h [2, 6] of 399 mg/kg. For the same molecule, the IC50 [3, 7] was 0.6 µM, the IC50 [3, 8] was 0.5 µM and the IC50 [4, 9] was 201 nM.

In the case of `COc1ccccc1N1CCN(CCCCNc2cccc3c(=O)c(C)c(-c4ccccc4)oc23)CC1` [Example 34, 8-{4-[4-(2-methoxyphenyl)-1-piperazinyl]-butylamino}-3-methyl-4-oxo-2-phenyl-4H-1-benzopyran hydrochloride hemihydrate], the IC50 [1] is reported as 30 nM, the LD50 at 168 h [2, 5] is reported as > 500 mg/kg and the IC50 [3, 7] is reported as 2.8 µM. For the same molecule, the IC50 [3, 8] was 3.6 µM and the IC50 [4, 9] was 34 nM.

In the case of `COc1ccccc1N1CCN(CCCNc2cccc3c(=O)c(C)c(-c4ccccc4)oc23)CC1` [Example 33, 8-{3-[4-(2-methoxyphenyl)-1-piperazinyl]-propylamino}-3-methyl-4-oxo-2-phenyl-4H-1-benzopyran hydrochloride 2.75-hydrate], the IC50 [1] is reported as 17 nM, the LD50 at 168 h [2, 5] is reported as 399 mg/kg and the LD50 at 168 h [2, 6] is reported as > 2000 mg/kg. It also gave an IC50 [3, 7] of 10 µM, an IC50 [3, 8] of 10 µM and an IC50 [4, 9] of 38 nM.

With `COc1ccccc1N1CCN(CCSCc2cccc3c(=O)c(C)c(-c4ccccc4)oc23)CC1.Cl` [Example 29, 8-{2-[4-(2-methoxyphenyl)-1-piperazinyl]-ethylthiomethyl}-3-methyl-4-oxo-2-phenyl-4H-1-benzopyran hydrochloride] the IC50 [1] was 86 nM, the LD50 at 168 h [2, 5] was 730 mg/kg and the LD50 at 168 h [2, 6] was > 3000 mg/kg. It also gave an IC50 [3, 7] of 10 µM, an IC50 [3, 8] of 10 µM and an IC50 [4, 9] of 45 nM.

In the case of `CS(=O)(=O)O.Cc1c(-c2ccccc2)oc2c(C(=O)NCCCN3CCC(c4ccccc4)(c4ccccc4)CC3)cccc2c1=O` [Example 55, 8-[3-(4,4-diphenyl-1-piperidinyl)-propylcarbamoyl]-3-methyl-4-oxo-2-phenyl-4H-1-benzopyran methansulphonate], the IC50 [1] is reported as 291 nM, the LD50 at 168 h [2, 5] is reported as 128 mg/kg and the LD50 at 168 h [2, 6] is reported as ≥ 2000 mg/kg. For the same molecule, the IC50 [4] was > 1000 nM.

For `COc1ccccc1N1CCN(CCCNS(=O)(=O)c2cccc3c(=O)c(C)c(-c4ccccc4)oc23)CC1.CS(=O)(=O)O` [Example 61, 8-{3-[4-(2-methoxyphenyl)-1-piperazinyl]-propylsulphamoyl}-3-methyl-4-oxo-2-phenyl-4H-1-benzopyran methanesulphonate], the IC50 [1] was 36 nM, the LD50 at 168 h [2, 5] was 315 mg/kg and the LD50 at 168 h [2, 6] was 592 mg/kg. It also gave an IC50 [4, 9] of 11 nM.

With `COc1ccccc1N1CCN(CCNc2cccc3c(=O)c(C)c(-c4ccccc4)oc23)CC1.Cl.Cl` [Example 32, 8-{2-[4-(2-methoxyphenyl)-1-piperazinyl]-ethylamino}-3-methyl-4-oxo-2-phenyl-4H-1-benzopyran dihydrochloride] the IC50 [1] was 119 nM, the LD50 at 168 h [2, 5] was 301 mg/kg and the LD50 at 168 h [2, 6] was > 2000 mg/kg. The IC50 [3, 7] was 10 µM, the IC50 [3, 8] was > 10 µM and the IC50 [4, 9] was 46 nM.

In the case of `Cc1c(-c2ccccc2)oc2c(C(=O)OCCN3CCCCC3)cccc2c1=O` [Flavoxate, 8-(2-piperidinoethoxycarbonyl)-3-methyl-4-oxo-2-phenyl-4H-1-benzopyran, reference compound], the IC50 [1] is reported as > 1000 nM, the “affinity for the α₁-adrenergic receptors” value ([1]; statement in words) is reported as “practically devoid of affinity” and the LD50 at 168 h [2, 5] is reported as 385 mg/kg. It also gave an LD50 at 168 h [2, 6] of 808 mg/kg, an IC50 [3, 7] of 13 µM and an IC50 [3, 8] of 13 µM. For the same molecule, the IC50 [4, 9] was > 1000 nM and the “affinity for the 5HT1A-serotoninergic receptors” value ([4]; statement in words) was “practically devoid of affinity”.

In the case of `COc1ccccc1N1CCN(CCOC(=O)/C=C/c2cccc3c(=O)c(C)c(-c4ccccc4)oc23)CC1` [Example 79, (E)-8-<2-{2-[4-(2-methoxyphenyl)-1-piperazinyl]-ethoxycarbonyl}-ethenyl>-3-methyl-4-oxo-2-phenyl-4H-1-benzopyran methanesulphonate], the IC50 [1] is reported as 77 nM, the LD50 at 168 h [2, 5] is reported as > 500 mg/kg and the LD50 at 168 h [2, 6] is reported as > 2000 mg/kg. For the same molecule, the IC50 [4, 9] was 141 nM.

Work on `CS(=O)(=O)O.Cc1c(-c2ccccc2)oc2c(C(=O)NCCCN3CCC(c4ccccc4)CC3)cccc2c1=O` [Example 54, 8-[3-(4-phenyl-1-piperidinyl)-propylcarbamoyl]-3-methyl-4-oxo-2-phenyl-4H-1-benzopyran methansulphonate] yielded an IC50 [1] of 35 nM, an LD50 at 168 h [2, 5] of 106 mg/kg and an LD50 at 168 h [2, 6] of 421 mg/kg. For the same molecule, the IC50 [4, 9] was 143 nM.

`COc1ccccc1N1CCN(CCCC[S+]([O-])c2cccc3c(=O)c(C)c(-c4ccccc4)oc23)CC1.CS(=O)(=O)O` (stereo not shown) [Example 73, 8-{4-[4-(2-methoxyphenyl)-1-piperazinyl]-butylsulphinyl}-3-methyl-4-oxo-2-phenyl-4H-1-benzopyran methanesulphonate] showed an IC50 [1] of 6 nM, an LD50 at 168 h [2, 5] of 202 mg/kg and an LD50 at 168 h [2, 6] of 462 mg/kg. The IC50 [4, 9] was 89 nM.

`COc1ccccc1N1CCN(CCCCc2cccc3c(=O)c(C)c(-c4ccccc4)oc23)CC1.CS(=O)(=O)O` [Example 53, 8-{4-[4-(2-methoxyphenyl)-1-piperazinyl]-butyl}-3-methyl-4-oxo-2-phenyl-4H-1-benzopyran methanesulphonate] showed an IC50 [1] of 7 nM, an LD50 at 168 h [2, 5] of 127 mg/kg and an LD50 at 168 h [2, 6] of 1020 mg/kg. For the same molecule, the IC50 [4, 9] was 41 nM.

In the case of `COc1ccccc1N1CCN(CCCCOc2cccc3c(=O)c(C)c(-c4ccccc4)oc23)CC1.Cl.Cl` [dihydrochloride], the IC50 [1] is reported as 43 nM, the IC50 ([3]; read-out: K+ Stimulation of Rat Bladder IC50 (μM) Contractions Phasic) is reported as 0.7 µM and the IC50 ([3]; read-out: K+ Stimulation of Rat Bladder IC50 (μM) Contractions Tonic) is reported as 1.4 µM. The IC50 [4, 9] was 53 nM.

In the case of `COc1ccccc1N1CCN(CCN(C)C(=O)c2cccc3c(=O)c(C)c(-c4ccccc4)oc23)CC1.Cl` [Example 16, 8-{N-methyl-2-[4-(2-methoxyphenyl)-1-piperazinyl]-ethylcarbamoyl}-3-methyl-4-oxo-2-phenyl-4H-1-benzopyran monohydrochloride], the IC50 [1] is reported as 220 nM, the LD50 at 168 h [2, 5] is reported as 345 mg/kg and the LD50 at 168 h [2, 6] is reported as 778 mg/kg. It also gave an IC50 [3, 7] of 1.6 µM, an IC50 [3, 8] of 2.2 µM and an IC50 [4, 9] of 1050 nM.

Molecule `COc1ccccc1N1CCN(CCOC(=O)Cc2cccc3c(=O)c(C)c(-c4ccccc4)oc23)CC1.Cl.Cl` [Example 66, 8-{2-[4-(2-methoxyphenyl)-1-piperazinyl]-ethoxycarbonylmethyl}-3-methyl-4-oxo-2-phenyl-4H-1-benzopyran dihydrochloride] has an IC50 [1] of 57 nM, an LD50 at 168 h [2, 6] of 601 mg/kg and an IC50 [4, 9] of 56 nM.

With `COc1ccccc1N1CCN(CCNC(=O)/C=C/c2cccc3c(=O)c(C)c(-c4ccccc4)oc23)CC1` [Example 72, E-8-<2-{2-[4-(2-methoxyphenyl)-1-piperazinyl]-ethylcarbamoyl}-ethenyl>-3-methyl-4-oxo-2-phenyl-4H-1-benzopyran methanesulphonate 1.2 H₂0] the IC50 [1] was 145 nM, the LD50 at 168 h [2, 5] was 479 mg/kg and the LD50 at 168 h [2, 6] was > 2000 mg/kg. The IC50 [4, 9] was 111 nM.

With `CCOc1ccccc1N1CCN(CC(O)c2cccc3c(=O)c(C)c(-c4ccccc4)oc23)CC1.Cl` (stereo not shown) [Example 19, 8-{1-Hydroxy-2-[4-(2-ethoxyphenyl)-1-piperazinyl]-ethyl}-3-methyl-4-oxo-2-phenyl-4H-1-benzopyran hydrochloride] the IC50 [1] was 165 nM, the LD50 at 168 h [2, 5] was > 1000 mg/kg and the LD50 at 168 h [2, 6] was > 3000 mg/kg. For the same molecule, the IC50 [4, 9] was 340 nM.
